According to publication PMC6934184, “Selective DNA-PKcs inhibition extends the therapeutic index of localized radiotherapy and chemotherapy” (The Journal of Clinical Investigation, 2019):

Biological target: T1, SIK3 (Homo sapiens, UniProt Q9Y2K2)
T1 construct: purchased Thermo Fisher Scientific (Life Technologies) SelectScreen
Experiment: SelectScreen LanthaScreen
Format: binding
Settings: 1 µM
In short: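 SelectScreen broad panel; activity (Z'LYTE, Adapta) plus binding formats. ATP: Km app for CSF1R Z'LYTE; 10 for CAMK1 Adapta. Readout = % per kinase.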

T1 sequence (Q9Y2K2 whole entry): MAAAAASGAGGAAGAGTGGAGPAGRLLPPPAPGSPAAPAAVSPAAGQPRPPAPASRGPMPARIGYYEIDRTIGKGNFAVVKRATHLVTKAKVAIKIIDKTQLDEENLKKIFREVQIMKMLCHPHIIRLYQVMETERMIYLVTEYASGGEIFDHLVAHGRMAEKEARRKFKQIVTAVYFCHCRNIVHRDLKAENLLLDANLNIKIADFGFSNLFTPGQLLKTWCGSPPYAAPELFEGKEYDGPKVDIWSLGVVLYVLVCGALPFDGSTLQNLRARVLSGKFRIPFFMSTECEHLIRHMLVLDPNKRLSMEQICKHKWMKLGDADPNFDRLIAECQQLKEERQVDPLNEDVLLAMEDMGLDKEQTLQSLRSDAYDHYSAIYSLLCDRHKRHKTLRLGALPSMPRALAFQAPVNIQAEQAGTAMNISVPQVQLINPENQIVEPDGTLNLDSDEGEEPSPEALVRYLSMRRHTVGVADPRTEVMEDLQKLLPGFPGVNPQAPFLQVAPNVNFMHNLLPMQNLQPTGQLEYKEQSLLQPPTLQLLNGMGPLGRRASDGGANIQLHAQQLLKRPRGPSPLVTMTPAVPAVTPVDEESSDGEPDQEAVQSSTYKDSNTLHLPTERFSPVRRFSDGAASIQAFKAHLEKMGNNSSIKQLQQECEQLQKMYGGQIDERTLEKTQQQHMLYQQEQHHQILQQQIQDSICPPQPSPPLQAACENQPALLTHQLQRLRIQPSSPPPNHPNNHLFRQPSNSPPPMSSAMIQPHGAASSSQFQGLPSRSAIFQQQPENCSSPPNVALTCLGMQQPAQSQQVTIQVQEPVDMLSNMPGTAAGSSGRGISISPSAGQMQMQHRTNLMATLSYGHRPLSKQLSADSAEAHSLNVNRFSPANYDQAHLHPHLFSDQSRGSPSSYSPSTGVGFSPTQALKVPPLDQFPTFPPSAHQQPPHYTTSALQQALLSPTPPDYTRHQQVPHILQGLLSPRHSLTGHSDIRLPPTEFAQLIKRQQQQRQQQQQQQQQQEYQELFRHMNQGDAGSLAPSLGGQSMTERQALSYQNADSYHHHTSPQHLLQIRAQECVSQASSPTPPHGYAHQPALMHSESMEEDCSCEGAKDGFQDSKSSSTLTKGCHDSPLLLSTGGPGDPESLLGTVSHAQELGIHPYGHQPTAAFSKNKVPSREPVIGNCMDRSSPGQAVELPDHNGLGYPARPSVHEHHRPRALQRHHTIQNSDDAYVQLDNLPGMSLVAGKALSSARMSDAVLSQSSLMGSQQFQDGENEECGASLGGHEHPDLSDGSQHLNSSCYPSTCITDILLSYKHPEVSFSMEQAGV

**Q.** With CN(C(=O)CN1CCOCC1)c1ccc2sc3c(-c4cccc5c(=O)cc(N6CC7CCC(C6)O7)oc45)cccc3c2c1 [NU5455] as the molecule, how does the “% displacement” value read?
**A.** Its value is 16.1%.
